Assay type in all cases: cell-based
Holding throughout (parameters): GPCRome screening signal at PTGIR / GPCRome screening signal at PTH1R / GPCRome screening signal at PTH2R / GPCRome screening signal at QRFP / GPCRome screening signal at RXFP2 / GPCRome screening signal at RXFP3 / GPCRome screening signal at RXFP4 / GPCRome screening signal at S1PR2 / GPCRome screening signal at S1PR3 / GPCRome screening signal at S1PR4 / GPCRome screening signal at S1PR5 / GPCRome screening signal at SCTR / GPCRome screening signal at SSTR2 / GPCRome screening signal at SSSTR / GPCRome screening signal at SSTR4 / GPCRome screening signal at SSTR5 / GPCRome screening signal at SUCNR1 / GPCRome screening signal at TA1 / GPCRome screening signal at TAAR2 / GPCRome screening signal at TAAR5 / GPCRome screening signal at TAAR6 / GPCRome screening signal at TAAR8 / GPCRome screening signal at TACR1 / GPCRome screening signal at TACR2 / GPCRome screening signal at TACR3 / GPCRome screening signal at TBXA2R / GPCRome screening signal at TSHR / GPCRome screening signal at UTS2R / GPCRome screening signal at VIPR2 / GPCRome screening signal at GPR68 no V2 Tail / GPCRome screening signal at GRM2 / GPCRome screening signal at GRM3: reference not given here

Assay [1] addresses T1, 320 non-olfactory GPCRs (Homo sapiens, UniProt Q14832).
T1 construct: expressed in transfected cells; host or cells: HTLA cells
The conditions noted are these: receptor GRM3.

The target of assay [2] is 320 non-olfactory GPCRs (Homo sapiens, UniProt P30872). To be noted: receptor SSTR1.
320 non-olfactory GPCRs (Homo sapiens, UniProt P30872), sequence (P30872 whole entry): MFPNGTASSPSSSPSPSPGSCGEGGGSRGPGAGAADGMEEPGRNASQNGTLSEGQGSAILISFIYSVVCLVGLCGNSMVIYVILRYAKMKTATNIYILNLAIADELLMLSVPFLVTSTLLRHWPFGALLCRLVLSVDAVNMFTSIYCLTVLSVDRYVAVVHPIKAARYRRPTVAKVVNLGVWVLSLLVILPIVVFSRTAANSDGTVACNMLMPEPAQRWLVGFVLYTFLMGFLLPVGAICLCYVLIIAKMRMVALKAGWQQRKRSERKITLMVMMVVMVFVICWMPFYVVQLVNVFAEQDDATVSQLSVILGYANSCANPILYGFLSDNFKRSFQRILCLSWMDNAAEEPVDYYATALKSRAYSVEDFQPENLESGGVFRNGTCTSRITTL
In assay [3] the target is T2, 320 non-olfactory GPCRs (Homo sapiens, UniProt P16473).
T2 construct: expressed in transfected cells; host or cells: HTLA cells
T2 sequence (P16473 21-764): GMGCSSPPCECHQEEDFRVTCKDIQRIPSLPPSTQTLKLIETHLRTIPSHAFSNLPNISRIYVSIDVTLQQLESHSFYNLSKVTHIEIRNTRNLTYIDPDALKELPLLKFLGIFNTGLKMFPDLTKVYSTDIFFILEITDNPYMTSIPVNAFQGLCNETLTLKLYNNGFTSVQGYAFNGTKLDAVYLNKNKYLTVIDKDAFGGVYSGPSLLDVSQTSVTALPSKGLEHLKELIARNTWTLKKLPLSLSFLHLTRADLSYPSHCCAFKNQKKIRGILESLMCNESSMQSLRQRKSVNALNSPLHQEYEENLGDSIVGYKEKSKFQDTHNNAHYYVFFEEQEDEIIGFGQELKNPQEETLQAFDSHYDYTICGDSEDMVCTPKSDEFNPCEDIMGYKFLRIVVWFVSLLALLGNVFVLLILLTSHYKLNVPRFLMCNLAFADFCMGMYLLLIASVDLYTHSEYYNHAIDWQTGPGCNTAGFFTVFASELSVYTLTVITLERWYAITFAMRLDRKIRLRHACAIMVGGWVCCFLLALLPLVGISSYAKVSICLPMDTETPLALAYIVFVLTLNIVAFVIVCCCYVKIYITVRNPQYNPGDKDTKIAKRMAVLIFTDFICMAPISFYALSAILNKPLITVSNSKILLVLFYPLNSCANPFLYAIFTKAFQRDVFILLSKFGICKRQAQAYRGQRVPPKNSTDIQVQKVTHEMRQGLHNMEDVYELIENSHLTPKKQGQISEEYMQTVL
To be noted: receptor TSHR.

Assay [4] concerns the target T3, 320 non-olfactory GPCRs (Homo sapiens, UniProt Q9H1C0).
T3 construct: expressed in transfected cells; host or cells: HTLA cells
The conditions noted are these: receptor GPR92.

Where [5] appears, read: Fig_5f, single replicate values.

Several values for one entry are separate records, joined by “and”; a condition that tells them apart may be missing. Identical values can stand only once.
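For GPCRome agonism screen response in this document: fold over basal response of each receptor without drug.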

T3 sequence (Q9H1C0 whole entry): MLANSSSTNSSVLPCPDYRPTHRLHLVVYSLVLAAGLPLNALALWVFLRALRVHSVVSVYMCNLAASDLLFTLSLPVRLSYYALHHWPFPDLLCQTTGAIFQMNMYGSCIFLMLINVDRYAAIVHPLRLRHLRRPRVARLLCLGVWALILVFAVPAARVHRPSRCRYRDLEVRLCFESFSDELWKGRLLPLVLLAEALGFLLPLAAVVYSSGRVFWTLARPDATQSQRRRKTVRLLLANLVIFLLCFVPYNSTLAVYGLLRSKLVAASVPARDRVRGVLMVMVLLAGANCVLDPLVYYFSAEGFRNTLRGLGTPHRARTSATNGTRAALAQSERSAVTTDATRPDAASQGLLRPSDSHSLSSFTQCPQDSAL
T1 sequence (Q14832 23-879): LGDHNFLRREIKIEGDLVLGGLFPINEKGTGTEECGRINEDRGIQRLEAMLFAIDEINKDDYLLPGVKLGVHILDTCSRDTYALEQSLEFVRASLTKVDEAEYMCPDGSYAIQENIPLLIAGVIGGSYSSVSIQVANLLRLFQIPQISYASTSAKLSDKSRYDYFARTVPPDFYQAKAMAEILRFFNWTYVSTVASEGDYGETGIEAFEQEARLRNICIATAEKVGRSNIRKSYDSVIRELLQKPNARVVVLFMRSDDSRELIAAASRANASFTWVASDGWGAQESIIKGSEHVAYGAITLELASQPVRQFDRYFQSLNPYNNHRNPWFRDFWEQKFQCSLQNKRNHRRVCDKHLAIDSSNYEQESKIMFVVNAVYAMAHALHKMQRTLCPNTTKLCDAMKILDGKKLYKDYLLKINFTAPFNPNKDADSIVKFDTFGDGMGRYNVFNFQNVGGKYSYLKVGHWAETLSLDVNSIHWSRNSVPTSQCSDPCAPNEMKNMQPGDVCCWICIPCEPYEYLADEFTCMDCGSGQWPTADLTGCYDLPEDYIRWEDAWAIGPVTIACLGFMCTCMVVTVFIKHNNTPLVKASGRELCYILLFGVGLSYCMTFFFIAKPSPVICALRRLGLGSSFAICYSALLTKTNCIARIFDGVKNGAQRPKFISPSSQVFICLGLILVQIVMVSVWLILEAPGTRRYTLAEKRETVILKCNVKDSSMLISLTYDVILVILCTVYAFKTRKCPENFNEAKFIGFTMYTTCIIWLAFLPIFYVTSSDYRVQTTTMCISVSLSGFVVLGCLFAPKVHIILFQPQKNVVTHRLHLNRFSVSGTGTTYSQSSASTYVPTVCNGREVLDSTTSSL

Consider `CCOc1ccccc1CCC(C)NCC1(O)CCCCC1.Cl` (racemic) [Fig_5f], for which the “GPCRome screening signal at GRM3” value in assay [1] (setting [5]) is 0.4086 and 1.387 and 0.6216 and 1.325. The “GPCRome screening signal at SSTR1” value in assay [2] (setting [5]) was 2.563 and 1.311 and 1.193 and 0.9402. In assay [3] (setting [5]), the “GPCRome screening signal at TSHR” value was 0.6627 and 1.386 and 0.8068 and 1.0471. Further, in assay [4] (setting [5]), the “GPCRome screening signal at GPR92” value is 0.9709 and 0.5547 and 0.5858 and 0.9422.

On to `CCOc1cccc2cc(C(C)NCC3(O)CCCCC3)oc12` (centres unmarked) [O4LE6], for which the “GPCRome agonism screen response” value in assay [1] (replicate values, Fig_4g) was 0.5635 and 0.5272 and 0.9256 and 1.931; in assay [2] (replicate values, Fig_4g), 1.245 and 0.3022 and 1.123 and 1.305; in assay [3] (replicate values, Fig_4g) it was 0.633 and 1.167 and 0.8187 and 0.6635; in assay [4] (replicate values, Fig_4g) it was 1.1613 and 0.7262 and 0.6248 and 2.678.
